Test results from DBAASP.
Converted amounts (≈) assume the structure as drawn.

Experiments:
Assay in all cases: ≥ marks a high value that may be exact or a test limit, other limits are often not marked, values filed in µg/mL are converted to µM
[1] = tested on: Escherichia coli ATCC 11219
[2] = tested on: Klebsiella pneumoniae ATCC 10031
[3] = tested on: Pseudomonas aeruginosa ATCC 13388
[4] = tested on: Salmonella enterica subsp. enterica serovar Typhimurium ATCC 14028
[5] = tested on: Staphylococcus aureus ATCC 6538
[6] = tested on: Candida albicans ATCC 90028
Escherichia coli SPE 001 = tested on: Escherichia coli SPE 001
[7] = tested on: Pseudomonas aeruginosa ATCC 9027
[8] = tested on: Staphylococcus aureus NBRC 100910
[9] = tested on: Staphylococcus aureus SPM 101
[10] = tested on: Staphylococcus aureus USA 100
[11] = tested on: Staphylococcus aureus USA 300
Alternaria alternata = tested on: Alternaria alternata
Botrytis cinerea = tested on: Botrytis cinerea
Cladosporium herbarum = tested on: Cladosporium herbarum
[12] = tested on: Clavibacter michiganensis subsp. michiganensis DSM 46294
[13] = tested on: Pectobacterium carotovorum subsp. carotovorum DSM 30168
[14] = tested on: Pseudomonas corrugata DSM 7228
[15] = tested on: Pseudomonas syringae pv. syringae DSM 10604
[16] = tested on: Pseudomonas syringae pv. tomato DC3000
[17] = tested on: Xanthomonas vesicatoria DSM 50861
[18] = tested on: Staphylococcus aureus 90857
[19] = tested on: Bacillus subtilis ATCC 62037
[20] = tested on: Candida albicans ATCC 10231
[21] = tested on: Escherichia coli ATCC 27325
[22] = tested on: Pseudomonas putida ATCC 17426
[23] = tested on: Saccharomyces cerevisiae ATCC 44774
[24] = tested on: Salmonella enterica subsp. enterica serovar Enteritidis ATCC 13076
[25] = tested on: Staphylococcus aureus ATCC 15752
[26] = tested on: Streptococcus mutans ATCC 25175
[27] = tested on: Acinetobacter baumannii ATCC 15308
[28] = tested on: Enterococcus faecium ATCC 19434
Escherichia coli BL2 = tested on: Escherichia coli BL2
[29] = tested on: Micrococcus luteus ATCC 7468
[30] = tested on: Pseudomonas sp. ATCC 15915
[31] = tested on: Staphylococcus aureus ATCC 502A
[32] = tested on: Listeria monocytogenes DBFIQ LM3
[33] = tested on: Staphylococcus aureus DBFIQ S21

## CC[C@H](C)[C@H](NC(=O)CN)C(=O)N[C@@H](CCCN=C(N)N)C(=O)N[C@@H](CCCN=C(N)N)C(=O)N[C@H](C(=O)N[C@@H](CC(C)C)C(=O)N[C@@H](CCCN=C(N)N)C(=O)N[C@@H](Cc1ccc(O)cc1)C(=O)NCC(=O)N[C@@H](CCCN=C(N)N)C(=O)N[C@@H](CCCN=C(N)N)C(=O)N[C@@H](CO)C(N)=O)[C@@H](C)CC [GIRRILRYGRRS]
[1]
  MIC: 3 µM (≈ 4.51 µg/mL)
[2]
  MIC: 5 µM (≈ 7.51 µg/mL)
[3]
  MIC: 20 µM (≈ 30 µg/mL)
[4]
  MIC: 10 µM (≈ 15 µg/mL)
[5]
  MIC: 10 µM (≈ 15 µg/mL)

## CC(C)C[C@H](NC(=O)[C@H](CCCCN)NC(=O)[C@H](CC(C)C)NC(=O)[C@H](CC(C)C)NC(=O)[C@H](CC(C)C)NC(=O)[C@H](CCCCN)NC(=O)[C@H](CC(C)C)NC(=O)[C@@H](N)CCCCN)C(=O)N[C@@H](CCCCN)C(N)=O [KLKLLLKLK]
[6]
  MIC: ≥ 100 µM
Escherichia coli SPE 001
  MIC: 7.3 µM (≈ 7.99 µg/mL)
[7]
  MIC: 12.5 µM (≈ 13.7 µg/mL)
[8]
  MIC: ≥ 117 µM
[9]
  MIC: 1.82 µM (≈ 2 µg/mL)
[10]
  MIC: ≥ 50 µM
[11]
  MIC: ≥ 50 µM

## CC(C)C[C@H](NC(=O)[C@H](C)NC(=O)CNC(=O)[C@H](CCCN=C(N)N)NC(=O)[C@H](Cc1ccccc1)NC(=O)[C@H](C)NC(=O)[C@H](CCCN=C(N)N)NC(=O)[C@H](Cc1ccccc1)NC(=O)[C@H](C)NC(=O)[C@H](C)NC(=O)[C@H](CC(C)C)NC(=O)[C@H](CCCN=C(N)N)NC(=O)[C@H](CCCN=C(N)N)NC(=O)[C@@H](N)CCCCN)C(=O)N[C@@H](CCCCN)C(=O)N[C@@H](CO)C(=O)N[C@H](C(=O)N[C@@H](CC(C)C)C(=O)N[C@@H](CCCCN)C(=O)N[C@@H](CCCCN)C(N)=O)C(C)C [KRRLAAFRAFRGALKSVLKK]
Alternaria alternata
  MIC: ≥ 43.2 µM
Botrytis cinerea
  MIC: ≥ 43.2 µM
Cladosporium herbarum
  MIC: 8.63 µM (≈ 20 µg/mL)
[12]
  MIC: 2.16 µM (≈ 5 µg/mL)
[13]
  MIC: 17.3 µM (≈ 40 µg/mL)
[14]
  MIC: 1.08 µM (≈ 2.5 µg/mL)
[15]
  MIC: 2.16 µM (≈ 5 µg/mL)
[16]
  MIC: 2.16 µM (≈ 5 µg/mL)
[17]
  MIC: 2.16 µM (≈ 5 µg/mL)

## CC[C@H](C)[C@H](NC(=O)[C@@H](NC(=O)[C@H](CCCCN)NC(=O)[C@H](CCCCN)NC(=O)[C@@H](NC(=O)[C@@H](NC(=O)[C@H](CCCCN)NC(=O)[C@@H](NC(=O)[C@H](CCCCN)NC(=O)[C@H](CCCCN)NC(=O)[C@H](CCCCN)NC(=O)[C@@H](N)CCCN=C(N)N)[C@@H](C)CC)[C@@H](C)CC)[C@@H](C)CC)[C@@H](C)CC)C(N)=O [RKKKIKIIKKII]
[12]
  MIC: 1.66 µM (≈ 2.5 µg/mL)
[13]
  MIC: 6.63 µM (≈ 9.99 µg/mL)
[14]
  MIC: 3.31 µM (≈ 5 µg/mL)
[15]
  MIC: 0.331 µM (≈ 0.5 µg/mL)
[16]
  MIC: 3.31 µM (≈ 5 µg/mL)
[18]
  MIC: ≥ 62.5 µM
[17]
  MIC: 1.66 µM (≈ 2.5 µg/mL)

## CC[C@H](C)[C@H](NC(=O)[C@@H]1CCCN1C(=O)[C@H](Cc1c[nH]c2ccccc12)NC(=O)[C@H](CCC(N)=O)NC(=O)[C@H](CCCN=C(N)N)NC(=O)[C@@H](NC(=O)[C@@H](NC(=O)[C@@H](N)CCCN=C(N)N)C(C)C)C(C)C)C(=O)NCC(=O)N[C@@H](CCCN=C(N)N)C(=O)N[C@H](C(=O)N[C@H](C(=O)N[C@@H](CCCN=C(N)N)C(=O)N[C@@H](CCCN=C(N)N)C(=O)N[C@H](C(=O)N[C@H](C(=O)N[C@@H](CCCN=C(N)N)C(=O)N[C@@H](CCCN=C(N)N)C(=O)N[C@H](C(=O)N[C@H](C(=O)N[C@@H](CCCN=C(N)N)C(=O)N[C@@H](CC(C)C)C(=O)O)C(C)C)C(C)C)C(C)C)C(C)C)C(C)C)C(C)C [RVVRQWPIGRVVRRVVRRVVRL]
[19]
  MIC: 0.726 µM (≈ 2 µg/mL)
[20]
  MIC: 0.726 µM (≈ 2 µg/mL)
[21]
  MIC: 0.726 µM (≈ 2 µg/mL)
[22]
  MIC: 1.45 µM (≈ 4 µg/mL)
[23]
  MIC: 0.726 µM (≈ 2 µg/mL)
[24]
  MIC: 1.45 µM (≈ 4 µg/mL)
[25]
  MIC: 0.726 µM (≈ 2 µg/mL)
[26]
  MIC: 0.726 µM (≈ 2 µg/mL)

## CC[C@H](C)[C@H](NC(=O)[C@H](C)NC(=O)[C@H](CCCN=C(N)N)NC(=O)[C@H](CCSC)NC(=O)[C@H](C)NC(=O)[C@@H](NC(=O)[C@@H](N)[C@@H](C)O)[C@@H](C)CC)C(=O)N[C@@H](CC(N)=O)C(=O)N[C@@H](CC(N)=O)C(=O)N[C@@H](Cc1ccc(O)cc1)C(=O)N[C@@H](CCCN=C(N)N)C(=O)N[C@@H](Cc1c[nH]c2ccccc12)C(=O)N[C@@H](CCCN=C(N)N)C(=O)N[C@@H](CO)C(=O)N[C@@H](CCCCN)C(=O)N[C@@H](CC(N)=O)C(=O)N[C@@H](CCC(N)=O)C(=O)N[C@@H](CC(N)=O)C(=O)N[C@H](C(=O)N[C@@H](Cc1ccccc1)C(=O)N[C@@H](CC(C)C)C(=O)N[C@@H](CCCN=C(N)N)C(=O)O)[C@@H](C)O [TIAMRAINNYRWRSKNQNTFLR]
[27]
  MIC: 1.1 µM (≈ 3.03 µg/mL)
[28]
  MIC: 7 µM (≈ 19.3 µg/mL)
Escherichia coli BL2
  MIC: 7 µM (≈ 19.3 µg/mL)
[29]
  MIC: 7 µM (≈ 19.3 µg/mL)
[30]
  MIC: 7 µM (≈ 19.3 µg/mL)
[31]
  MIC: 1.5 µM (≈ 4.13 µg/mL)

## CC[C@H](C)[C@H](NC(=O)[C@H](C)NC(=O)[C@@H](NC(=O)[C@H](C)NC(=O)CNC(=O)[C@H](CCSC)NC(=O)[C@H](CCC(N)=O)NC(=O)[C@H](CC(C)C)NC(=O)[C@H](CO)NC(=O)[C@@H](N)Cc1ccc(O)cc1)[C@@H](C)O)C(=O)N[C@@H](CCCCN)C(=O)N[C@@H](CCC(N)=O)C(=O)N[C@H](C(=O)N[C@@H](CCCCN)C(=O)N[C@@H](CCCCN)C(=O)N[C@@H](CC(C)C)C(=O)N[C@@H](Cc1ccccc1)C(=O)N[C@@H](CCCCN)C(=O)N[C@@H](CCCCN)C(=O)N[C@@H](CCCCN)C(=O)NCC(=O)NCC(N)=O)C(C)C [YSLQMGATAIKQVKKLFKKKGG]
[32]
  MIC: 1.7 µM (≈ 4.12 µg/mL)
[33]
  MIC: 6.6 µM (≈ 16 µg/mL)
